The values that follow come from patent US20240382452A1, “COMPOSITIONS AND DOSAGE FORMS FOR TOPICAL AND TRANSDERMAL DELIVERY OF ACTIVES AND METHODS OF USE” (priority 2021, published 2024).

Several values for one entry are separate records, joined by “and”; a condition that tells them apart may be missing. Equal values may be shown once.

Data set [1] deals with Oxyuranus scutellatus venom. The experiment in a line: Snake venom study, Oxyuranus scutellatus severe neurotoxicity, topical treatment. Conditions: individual mice #1-#4; in 80% DMSO/20% ethanol in <50% 2.5%/2.5% lidocaine/prilocaine cream +/- petrolatum cover. The format is in vivo. The source says: Additional studies used historical controls from earlier studies with venom doses from same lots:
Oxyuranus scutellatus severe neurotoxicity and 3-(5′-benzyl-2′-carbamoyl-[1,1′-biphenyl]-3-yl)-2-methylpropanoic acid as the racemic mixture in 80% DMSO/20% ethanol in <50% 2.5%/2.5% lidocaine/prilocaine cream+/−petrolatum cover (1 each).

A short description of data set [2]: Varespladib DMSO/ethanol pad applied to simulated viper bite on the inventor's calf. The conditions noted are these: 75 mg/mL in DMSO/ethanol, 2 mL on absorbent pad containing 4% lidocaine; patch applied 24 hours. The format is in vivo, human. On the procedure: The free-acid of varespladib […] was dissolved at 100 mg/mL in DMSO, then diluted with ethanol to 75 mg/mL and 2 mL applied to an absorbent pad containing 4% lidocaine and applied to a simulated viper bite on the inventor's calf applied by penetration to 1 cm with 18 g hypodermic needles similar in depth to what would be experienced with a large viper's bite.

With `CC(Cc1cccc(-c2cc(Cc3ccccc3)ccc2C(N)=O)c1)C(=O)O` (racemic) [3-(5′-benzyl-2′-carbamoyl-[1,1′-biphenyl]-3-yl)-2-methylpropanoic acid], the Cessation of breathing in data set [1] was 64 min and 44 min and 104 min and 111 min.
For `CCc1c(C(=O)C(N)=O)c2c(OCC(=O)O)cccc2n1Cc1ccccc1` [varespladib], in data set [2], the “pain, discomfort or redness at wounded area” value is recorded as “no pain, discomfort or redness”.
